From patent publication US7323609B2, “Corrosion and gas hydrate inhibitors having improved water solubility and increased biodegradability” (Clariant Produkte (Deutschland) GmbH, priority 2003, dated 2008)

What was measured:
[1] = LPR test (corrosion inhibition, conditions similar to ASTM D 2776); set-up: concentration or dose not given beside the values
Protocol: The products were also tested in the LPR test (test conditions similar to ASTM D 2776).

[2] = Shell wheel test (corrosion inhibition); details: 50 ppm of a 40% inhibitor solution; salt water/petroleum, pH 3.5, 40 rpm, 70° C., 24 hours; from mass reduction vs blank
Protocol: The compounds according to the invention were tested as corrosion inhibitors in the Shell wheel test. Coupons of carbon steel (DIN 1.1203 having 15 cm^2 surface area) were immersed in a salt water/petroleum mixture (9:1.5% NaCl solution, adjusted to pH 3.5 using acetic acid) and subjected to this medium at a rotation rate of 40 rpm at 70° C. for 24 hours. The dosage of the inhibitor was 50 ppm of a 40% solution of the inhibitor. The protection values were calculated from the mass reduction of the coupons, based on a blank value.
In the table which follows, “comparison 1” refers to a commercial residue amine, quat based on dicocoalkyldimethylammonium chloride and “comparison 2” to a commercial soya fatty acid amidopropyl-N,N-dimethylammonium carboxymethyl betaine described by EP-B-0 446 616 (prior art corrosion inhibitors).

Substance	Protection after 10 min [1] [%]	Protection after 30 min [1] [%]	Protection after 60 min [1] [%]	ø Protection % [2] [%]
oleyl+5 EO-ether carboxamido-N,N-dimethylamino-N-propylammonium N-methylcarboxyl betaine [Example 33]	75.6	80.3	82.8	70.7
lauryl+3 EO-ether carboxamido-N,N-dimethylamino-N-propylammonium N-methylcarboxyl betaine [Example 35]	74.4	80.2	84.3	75.9
C14/15-oxo alcohol+7 EO-ether carboxamido-N,N-dimethylamino-N-propylammonium N-methylcarboxyl betaine [Example 34]	–	–	–	71.9
